Read-outs that look alike come from different tables or passages of the source. Numbered stars: 1 amine (or outer) side, 2 acyl side, 3 side chain; on linkers, the order of the positions; unused ones are H or OH. Bridge positions count the residues as written; N and C are the ends. Square brackets hold non-standard residues; d marks the D form. Peptide text beside a SMILES is read from it. * marks the point of attachment. Trp(βS-Me,7-OMe) = COc1cccc2c([C@H](C)[C@H](N)C(=O)O)c[nH]c12; Phe(4-SO2NH2) = N[C@@H](Cc1ccc(S(N)(=O)=O)cc1)C(=O)O; Ala(indazol-1-yl) = N[C@@H](Cn1ncc2ccccc21)C(=O)O; Trp(7-CN) = N#Cc1cccc2c(C[C@H](N)C(=O)O)c[nH]c12; Trp(7-Cl) = N[C@@H](Cc1c[nH]c2c(Cl)cccc12)C(=O)O; Phe(4-CONH2) = NC(=O)c1ccc(C[C@H](N)C(=O)O)cc1; Phe(4-COOH) = N[C@@H](Cc1ccc(C(=O)O)cc1)C(=O)O; 4Pal(3S-Me) = C[C@@H](c1ccncc1)[C@H](N)C(=O)O; Trp(7-aza) = N[C@@H](Cc1c[nH]c2ncccc12)C(=O)O; dPro(trans-4-F) = O=C(O)[C@H]1C[C@H](F)CN1; Pip(5R-OH) = O=C(O)[C@@H]1CC[C@@H](O)CN1; X1 = O=C([C@@H]1CC[C@H](N[*:1])C1)[*:2]; Pip(4-aza) = O=C(O)[C@@H]1CNCCN1; 4Pal = N[C@@H](Cc1ccncc1)C(=O)O; dHyp = O=C(O)[C@H]1C[C@H](O)CN1; Aad = N[C@@H](CCCC(=O)O)C(=O)O; Ahp(2) = CCCCC[C@H](N)C(=O)O; αMeS = C[C@](N)(CO)C(=O)O; Carboxymethyl = O=C(O)C*; Nle = CCCC[C@H](N)C(=O)O; Sar = CNCC(=O)O

In experiment [1] the target is T1, human soluble TNFR1 (sTNFR1) (Homo sapiens, UniProt P19438).
T1 construct: made in house; host or cells: Sf21 (baculovirus)
T1 sequence (P19438 with tags, fused parts or gaps): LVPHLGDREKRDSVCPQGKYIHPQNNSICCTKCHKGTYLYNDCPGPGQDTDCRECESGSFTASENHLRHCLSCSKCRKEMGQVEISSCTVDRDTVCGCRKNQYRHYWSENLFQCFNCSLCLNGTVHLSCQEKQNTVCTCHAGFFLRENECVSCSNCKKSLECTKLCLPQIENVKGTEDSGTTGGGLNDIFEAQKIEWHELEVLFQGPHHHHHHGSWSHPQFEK
Briefly: Human sTNFR1-peptide displacement assay (LanthaScreen Eu TR-FRET binding assay). In outline: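 Readout is the 665/615 nm TR-FRET ratio (Eu anti-His donor, streptavidin-Alexa647 acceptor), normalized to DMSO and saturating displacer, fit by Morrison-based five-parameter logistic for Kd^app. His-tagged sTNFR1 (1-211) prebound to 100 nM biotinylated peptide SEQ ID NO.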
Background: Time-resolved FRET reads energy transfer from a long-lived donor to a nearby acceptor.

For experiment [2], the target named is T2, TNFα-induced NF-κB signal transduction pathway (TNFR1 signaling) in THP-1 cells (Homo sapiens, UniProt P19438).
T2 sequence (P19438 30-455): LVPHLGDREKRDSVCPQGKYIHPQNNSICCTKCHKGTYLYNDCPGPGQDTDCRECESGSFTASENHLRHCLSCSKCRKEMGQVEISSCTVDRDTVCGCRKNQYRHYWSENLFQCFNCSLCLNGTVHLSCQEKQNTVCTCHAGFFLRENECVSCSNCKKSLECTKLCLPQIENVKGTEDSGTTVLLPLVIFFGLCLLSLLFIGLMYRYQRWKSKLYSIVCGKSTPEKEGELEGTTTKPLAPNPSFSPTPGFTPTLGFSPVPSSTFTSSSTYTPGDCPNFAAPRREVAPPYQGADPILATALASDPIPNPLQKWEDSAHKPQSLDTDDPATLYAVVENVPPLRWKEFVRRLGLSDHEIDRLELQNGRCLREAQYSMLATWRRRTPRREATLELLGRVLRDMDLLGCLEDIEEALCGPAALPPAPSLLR
Briefly: THP-1 Lucia NF-κB reporter cell assay, inhibition of TNFα-induced NF-κB signaling. To be noted: THP-1 NF-κB Lucia reporter cells, 10 ng/mL TNFα, 16-18 h, secreted luciferase, read-out: THP-1 IC50. Type of experiment: cell-based. In outline: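 Macrocyclic peptides were preincubated 1 h at 37 °C with THP-1 NF-κB-Lucia reporter cells (20,000 cells/well) in antibiotic-free RPMI 1640/10% FBS, then stimulated with 10 ng/mL human TNFα overnight (16-18 h). Secreted luciferase in supernatant was read by luminescence; IC50 from 4-parameter logistic fits.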

The term Kd denotes the concentration at which binding is half-saturated. Low readings indicate higher affinity, high ones lower affinity. Usually IC50 stands for the concentration that inhibits the measured activity by half. For `CCCC[C@@H]1NC(=O)CSC[C@@H](C(N)=O)NC(=O)[C@H]([C@@H](C)c2c[nH]c3c(OC)cccc23)NC(=O)CN(C)C(=O)[C@H](Cc2ccc(O)cc2)NC(=O)[C@H](Cc2ccc(C(=O)O)cc2)NC(=O)[C@](C)(CO)NC(=O)[C@H](Cc2c[nH]c3c(Cl)cccc23)NC(=O)[C@H](Cc2ccncc2)NC(=O)[C@H](CC(N)=O)NC(=O)[C@H]2C[C@H](F)CN2C(=O)[C@H](Cc2c[nH]c3ccccc23)NC(=O)[C@@H]2CNCCN2C(=O)[C@H](Cc2ccncc2)NC1=O` [SEQ ID NO. 279] ({CH2CO}-[Nle][4Pal][Pip(4-aza)]W[dPro(trans-4-F)]N[4Pal][Trp(7-Cl)][αMeS][Phe(4-COOH)]Y[Sar][Trp(βS-Me,7-OMe)]C-NH2; thioether N-14), in experiment [1], the Kd is 0.38 nM. In addition, in experiment [2], the concentration for half-maximal inhibition (IC50) was found to be 1.4 nM.
For `CCCCC[C@@H]1NC(=O)[C@@H]2CC[C@@H](C2)NC(=O)[C@H]([C@@H](C)c2c[nH]c3c(OC)cccc23)NC(=O)CN(C)C(=O)[C@H](Cc2ccc(C(N)=O)cc2)NC(=O)[C@H](Cc2ccc(C(N)=O)cc2)NC(=O)[C@](C)(CO)NC(=O)[C@H](Cc2c[nH]c3c(C#N)cccc23)NC(=O)[C@H](Cc2ccc(C(=O)O)cc2)NC(=O)[C@H](CC(N)=O)NC(=O)[C@H]2C[C@H](O)CN2C(=O)[C@H](Cc2c[nH]c3ccccc23)NC(=O)[C@H](CCCC(=O)O)NC(=O)[C@H]([C@@H](C)c2ccncc2)NC1=O` [SEQ ID NO. 282] (cyclo([Aad]W[dHyp]N[Phe(4-COOH)][Trp(7-CN)][αMeS][Phe(4-CONH2)][Phe(4-CONH2)][Sar][Trp(βS-Me,7-OMe)][X1][Ahp(2)][4Pal(3S-Me)])), in that order: 0.13 nM and 0.9 nM.
In experiment [1], `CCCC[C@@H]1NC(=O)[C@@H]2CC[C@@H](C2)NC(=O)[C@H]([C@@H](C)c2c[nH]c3c(OC)cccc23)NC(=O)CN(C)C(=O)[C@H](Cc2ccc(C(=O)O)cc2)NC(=O)[C@H](Cc2ccc(C(N)=O)cc2)NC(=O)[C@](C)(CO)NC(=O)[C@H](Cc2c[nH]c3c(C#N)cccc23)NC(=O)[C@H](Cc2ccc(C(=O)O)cc2)NC(=O)[C@H](CC(N)=O)NC(=O)[C@H]2C[C@H](OCC(=O)O)CN2C(=O)[C@H](Cc2c[nH]c3ncccc23)NC(=O)[C@@H]2CC[C@@H](O)CN2C(=O)[C@H](Cc2ccncc2)NC1=O` [SEQ ID NO. 284] (cyclo([4Pal][Pip(5R-OH)][Trp(7-aza)][dHyp](Carboxymethyl)N[Phe(4-COOH)][Trp(7-CN)][αMeS][Phe(4-CONH2)][Phe(4-COOH)][Sar][Trp(βS-Me,7-OMe)][X1][Nle])) gave a Kd of 0.09 nM. In addition, the IC50 in experiment [2] (listed as 284) is 0.8 nM.
In experiment [1], `CCCC[C@@H]1NC(=O)[C@@H]2CC[C@@H](C2)NC(=O)[C@H]([C@@H](C)c2c[nH]c3c(OC)cccc23)NC(=O)CN(C)C(=O)[C@H](Cc2ccc(OCC(=O)O)cc2)NC(=O)[C@H](Cc2ccc(C(N)=O)cc2)NC(=O)[C@](C)(CO)NC(=O)[C@H](Cc2c[nH]c3c(C#N)cccc23)NC(=O)[C@H](Cc2ccc(OCC(=O)O)cc2)NC(=O)[C@H](CC(N)=O)NC(=O)[C@H]2C[C@H](O)CN2C(=O)[C@H](Cc2c[nH]c3ccccc23)NC(=O)[C@@H]2CC[C@@H](O)CN2C(=O)[C@H](Cc2ccncc2)NC1=O` [SEQ ID NO. 285] (cyclo([4Pal][Pip(5R-OH)]W[dHyp]NY(Carboxymethyl)[Trp(7-CN)][αMeS][Phe(4-CONH2)]Y(Carboxymethyl)[Sar][Trp(βS-Me,7-OMe)][X1][Nle])) had a Kd of 0.04 nM. Besides, the IC50 in experiment [2] was found to be 0.6 nM.
The like results for `CCCC[C@@H]1NC(=O)[C@@H]2CC[C@@H](C2)NC(=O)[C@H]([C@@H](C)c2c[nH]c3c(OC)cccc23)NC(=O)CN(C)C(=O)[C@H](Cc2ccc(OCC(=O)O)cc2)NC(=O)[C@H](Cc2ccc(S(N)(=O)=O)cc2)NC(=O)[C@](C)(CO)NC(=O)[C@H](Cc2c[nH]c3c(C#N)cccc23)NC(=O)[C@H](Cc2ccc(OCC(=O)O)cc2)NC(=O)[C@H](CC(N)=O)NC(=O)[C@H]2C[C@H](O)CN2C(=O)[C@H](Cn2ncc3ccccc32)NC(=O)[C@@H]2CC[C@@H](O)CN2C(=O)[C@H](Cc2ccncc2)NC1=O` [SEQ ID NO. 286] (cyclo([4Pal][Pip(5R-OH)][Ala(indazol-1-yl)][dHyp]NY(Carboxymethyl)[Trp(7-CN)][αMeS][Phe(4-SO2NH2)]Y(Carboxymethyl)[Sar][Trp(βS-Me,7-OMe)][X1][Nle])) were, in that order, 0.05 nM and 0.4 nM.

Values taken from patent publication US20240287138A1, “CYCLIC PEPTIDES FOR INHIBITING TNF RECEPTOR 1 ACTIVITY” (Merck Sharp & Dohme LLC, priority 2023, published 2024).
